# In US20260263485A1, “AMINOSTEROL COMPOUNDS, AMINOSTEROL-CYCLODEXTRIN FORMULATIONS, AND METHODS OF USING THE SAME” (Enterin, Inc., priority 2022, published 2026):
# Key:
# [1] = Identification of metabolites of ENT-03S in rat bile samples (UPLC-MS/MS); details: bile duct cannulated male SD rats, 10 mg/kg ENT-03S SC; for Metabolite peak area percentages Rat Bile: pooled bile 0-24 h, relative XIC peak area; for Metabolite peak area Rat Bile: pooled bile, XIC peak area
# Procedure: An equal volume of rat bile samples (50 μL) were taken from different animals at different time points following administration of ENT-03S. 50 μL of matrix was mixed with 200 μL of methanol (containing 0.1% formic acid), vortexed for 100 seconds and then centrifuged at 16,000 g for 10 minutes at 4° C. to precipitate proteins. 100 μL of the supernatant was transferred to a new tube and the supernatant diluted with 100 μt, pure water, mixed well and analyzed using UPLC-MS/MS.
# The peak area percentages of parent drug and each metabolite were determined by semi-quantitative estimation using the extracted ion chromatogram peak areas of all detected drug-related material in the sample. Metabolites with percentage of peak area>10% are proposed as major metabolites of ENT-03S.
# Bile samples were obtained from male rats at various time points following a 10 mg/kg dose of ENT-03S via subcutaneous administration in bile dicut cannulated male SD rats as detailed in Table 10. The samples were transferred on dry ice and stored at −80° C. prior to use
# Study design: An equal volume of rat bile samples (50 μL) were taken from different animals at different time points following administration of ENT-03S in study No.: PII-DMPK-ETR-21-001. 50 μL of matrix was mixed with 200 μL of methanol (containing 0.1% formic acid), vortexed for 100 seconds and then centrifuged at 16,000 g for 10 minutes at 4° C. to precipitate proteins. 100 μL of the supernatant was transferred to a new tube and the supernatant diluted with 100 μL pure water, mixed well and analyzed using UPLC-MS/MS.
# Sample preparation: For bile samples, an equal volume of samples (50 μL) are taken from different animals at various time points after the administration of each group of samples, and the same group of samples are mixed thoroughly.
# Data Analysis: UPLC-MS/MS was used for sample analysis, and was conducted using a DionexUltiMate 3000/Vanquish UHPLC system. For mass spectrometry (MS), all analysis was carried out with a Q-Exactive instrument (Thermo Fisher). A full MS scan was used to trigger the data dependent acquisition (DDA) of MS/MS scan spectra. Compound dependent parameters were optimized by ENT-03S. DDA settings were used to trigger acquisition of MS^2 spectra for ions whose intensity is in top 5 of all, with exclusion of impurity ions (m/z 149.02332, m/z 279.15909, m/z 391.28429 and m/z 445.12003), after 3 occurrences for 10 s. Dynamic exclusion settings: automatic exclusion of the ions which have been taken.
# Data Analysis: The analysis was carried out using a thermo Fisher Scientific Q Exactive instrument. Full MS scan was used to trigger the data dependent acquisition (DDA) of MS/MS scan spectra. Compound dependent parameters were optimized by ENT-03S. DDA settings were used to trigger acquisition of MS^2 spectra for ions whose intensity was in the top 5 of all, with exclusion of ions (m/z 149.02332, m/z 279 1 5909, m/z 391.28429 and m/z 445 12003), after 3 occurrences for 10 s. Data was acquired and processed using Xcalibur v4.1 software (Thermo Fisher Scientific) and Compound Discoverer 3.1 (Thermo Fisher Scientific) and Excel (Microsoft 2016).
# [2] = Identification of metabolites of ENT-03S in rat plasma and urine samples (UPLC-MS/MS); type: in vivo
# Procedure: An equal number of rat urine (50 μL) were taken from different animals at various time points following administration of ENT-03S. For plasma samples, the Hamilton pooling method was used.
# Study design: An equal number of rat urine (50 μL) samples were taken from different animals at various time points from study No.: PH-DMPK-ETR-21-001 following administration of ENT-03S. For plasma samples, the Hamilton pooling method was used.
# The samples were then analysed using UPLC-MS/MS.
# Compound dependent parameters were optimized by ENT-03S.
# [3] = cited from earlier work
# PTP1B = details: in vitro, bank of commercially available phosphatases; cited from earlier work
# [4] = Plasma pharmacokinetics of ENT-03S cyclodextrin formulation after subcutaneous injection; type: in vivo, rat; details: Sprague-Dawley, rat; 20% beta-cyclodextrin formulation; SC Dose 10 mg/kg; male SD rats; plasma; mean; read-out: Tmax Mean
# Procedure: In this example, ENT-03S was formulated with unmodified beta-cyclodextrin at a concentration of 25 mg/ml ENT-03, and 20% beta-cyclodextrin, pH 7.5, buffered with phosphate.
# Male Sprague-Dawley rats were administered the ENT-03-cyclodextrin formulation subcutaneous at a dose of 10 mg/kg. Blood samples were drawn from the tail vein at various times, the concentrations of ENT-03 determined, and PK parameters determined.
structure (smiles),measurement,setting,value
C[C@H](CCC[C@H](C)C(=O)O)[C@H]1CCC2C3C(CC[C@@]21C)[C@@]1(C)CC[C@H](NCCCNCCCC(=O)O)C[C@@H]1C[C@H]3O (some centres unmarked) [M10-PU/M14-RB],Metabolite peak area percentages Rat Bile,[1],3.23%
same,Metabolite peak area Rat Bile,[1],3.98E+06
"C[C@H](CCC(=O)O)[C@H]1CCC2C3C(CC[C@@]21C)[C@@]1(C)CC[C@H](NCCCNCCCCNCCCN)C[C@@H]1C[C@H]3O (single isomer, unassigned) [ENT-17]",Metabolite peak area percentages Rat Plasma Male,"[2]; pooled male SD rat plasma 0.25-24 h after 10 mg/kg ENT-03S SC, relative XIC peak area",0.55%
same,Metabolite peak area Rat Plasma Male,"[2]; pooled male SD rat plasma after 10 mg/kg ENT-03S SC, XIC peak area",3.62E+06
same,Metabolite peak area percentages Rat Urine Male,"[2]; pooled male SD rat urine 0-24 h after 10 mg/kg ENT-03S SC, relative XIC peak area, “—”: not observed",7.56%
same,Metabolite peak area Rat Urine Male,"[2]; pooled male SD rat urine after 10 mg/kg ENT-03S SC, XIC peak area, “—”: not observed",1.70E+05
C[C@H](CCC[C@H](C)C(=O)O)[C@H]1CCC2C3C(CC[C@@]21C)[C@@]1(C)CC[C@H](NCCCNCCCCNCCC(=O)O)C[C@@H]1C[C@H]3O (stereo partly drawn) [ENT-25S],Metabolite peak area percentages Rat Bile,[1],9.52%
same,Metabolite peak area Rat Bile,[1],1.17E+07
"CC(CCC[C@@H](C)[C@H]1CCC2C3C(CC[C@@]21C)[C@@]1(C)CC[C@H](NCCCNCCCCNCCCN)C[C@@H]1C[C@H]3O)C(=O)O (single isomer, unassigned) [ENT-03]",hepatic steatosis,[3]; in vivo,reduces hepatic steatosis
same,insulin sensitivity,[3]; in vivo,acutely increases insulin sensitivity
same,food intake and body weight,[3]; peripheral and central administration to lean rodents,prolonged reduction in food intake and body weight
same,inhibition of PTP1B relative to the other phosphatases assayed,PTP1B,most potently inhibited
same,Tmax,[4],2 h
C[C@H](C[C@H](C)C(=O)O)[C@H]1CCC2C3C(CC[C@@]21C)[C@@]1(C)CC[C@H](NCCC(=O)O)C[C@@H]1C[C@H]3O (some centres unmarked) [M16-RB],Metabolite peak area percentages Rat Bile,[1],0.69%
same,Metabolite peak area Rat Bile,[1],8.45E+05
C[C@H](CCC(=O)NCCS(=O)(=O)O)[C@H]1CCC2C3C(CC[C@@]21C)[C@@]1(C)CC[C@H](NCCC(=O)O)C[C@@H]1C[C@H]3O (some centres unmarked) [M3-RB],Metabolite peak area percentages Rat Bile,[1],2.27%
same,Metabolite peak area Rat Bile,[1],2.80E+06
